Among the data in US10828301B2, “2,4-pyrimidinediamine compounds and their uses” (Rigel Pharmaceuticals, Inc, priority 2002, dated 2020) are IC50 values, retold here.

Each structure is given as a SMILES string. Some results are limits rather than exact numbers.

For experiment [1], the system named is cultured human mast cells (CHMC). Description: CHMC low cell density IgE activation: tryptase and LTC4 assays. The class given is cell-based. Summed up:
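Degranulation measured after 30 min anti-IgE challenge at 37° C of CHMC plated at 1000-1500 cells/well following 1 h preincubation. Readouts: LTC4 by ELISA on donor-specific diluted supernatants, and tryptase activity from a 30 min room-temperature substrate reaction.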

Experiment [2] has the same test system. Briefly: CHMC low cell density ionomycin activation: tryptase assay. The class given is cell-based. The settings on record: read-out: CHMC Ionomycin Tryptase.
[3] abbreviates: Homo sapiens, Mast cell, Low Density CHMC, anti-IgE activation, tryptase readout, read-out: CHMC anti-IgE Tryptase.
Setting [4] is: Homo sapiens, Mast cell, Low Density CHMC, ionomycin activation, tryptase readout.

For `CCOC(=O)CNc1nc(NCC(=O)OCC)c(N)c(C(=O)OCC)n1` [Compound R925865, 5-Amino-N2,N4-bis(ethoxycarbonylmethyl)-6-ethoxycarbonyl-2,4-pyrimidinediamine], the IC50 in experiment [1] (setting [3]) and in experiment [2] (setting [4]) was more than 10 µM each time.
Regarding `Cc1cnc(Nc2ccc3c(c2)OCCO3)nc1Nc1ccc2c(c1)OCCO2` [Compound R926242, N2,N4-Bis(3,4-ethylenedioxyphenyl)-5-methyl-2,4-pyrimidinediamine], the IC50 in experiment [1] (setting [3]) is 4.2 µM; in experiment [2] (setting [4]), more than 10 µM.
On to `c1cc(Nc2ccc3c(c2)OCCO3)nc(Nc2ccc3c(c2)OCCO3)n1` [Compound R926243, N2,N4-Bis(3,4-ethylenedioxyphenyl)-2,4-pyrimidinediamine], for which the IC50 is 3.1 µM in experiment [1] (setting [3]) and more than 10 µM in experiment [2] (setting [4]).
Take `Clc1cc(Nc2ccc3c(c2)OCCO3)nc(Nc2ccc3c(c2)OCCO3)n1` [Compound R926245, N2,N4-Bis(3,4-ethylenedioxyphenyl)-6-chloro-2,4-pyrimidinediamine]: the figures for the IC50 in experiment [1] (setting [3]) and in experiment [2] (setting [4]) were 3.1 µM and 9.4 µM, respectively.
The corresponding values for `CCOC(=O)c1cnc(Nc2ccc(CC#N)cc2)nc1Nc1ccc(CC#N)cc1` [Compound R926319, N2,N4-Bis(4-cyanomethylphenyl)-5-ethoxycarbonyl-2,4-pyrimidinediamine] are more than 10 µM and more than 10 µM.
For `CCOC(=O)C=Nc1ccc(Nc2ncc(C(=O)OCC)c(Nc3ccc(N=CC(=O)OCC)cc3)n2)cc1` [Compound R926331, N2,N4-Bis(4-ethoxycarbonylmethyleneaminophenyl)-5-ethoxycarbonyl-2,4-pyrimidinediamine], the IC50 in experiment [1] (setting [3]) and in experiment [2] (setting [4]) was more than 10 µM in each case.
As to `COc1ccc(Nc2ncc(F)c(Nc3ccc(OC)c(O)c3)n2)cc1O` [Compound R926339, N2,N4-Bis(3-hydroxy-4-methoxyphenyl)-5-fluoro-2,4-pyrimidinediamine], the results for the IC50 in experiment [1] (setting [3]) and in experiment [2] (setting [4]) were 0.66 µM and more than 10 µM, respectively.
In the case of `CCOC(=O)Nc1ccc(Nc2ncc(F)c(Nc3ccc(NC(=O)OCC)c(O)c3)n2)cc1O` [Compound R926340, N2,N4-Bis(4-ethoxycarbonylamino-3-hydroxyphenyl)-5-fluoro-2,4-pyrimidinediamine], the figures for the IC50 in experiment [1] (setting [3]) and in experiment [2] (setting [4]) were 3.23 µM and more than 10 µM, respectively.
On to `Fc1cnc(Nc2ccc3c(c2)OC(F)(F)O3)nc1Nc1ccc2c(c1)OCCO2` [Compound R926386, N2-(2,2-Difluorobenzodioxol-5-yl)-N4-(3,4-ethylenedioxyphenyl)-5-fluoro-2,4-pyrimidinediamine], for which the IC50 in experiment [1] (setting [3]) and in experiment [2] (setting [4]) was more than 10 µM each time.
Turning to `Fc1cnc(Nc2cccc(OCc3ccccc3)c2)nc1Nc1cccc(OCc2ccccc2)c1` [Compound R926394, N2,N4-Bis(3-benzyloxyphenyl)-5-fluoro-2,4-pyrimidinediamine], the IC50 in experiment [1] (setting [3]) and in experiment [2] (setting [4]) was more than 10 µM throughout.
With `Cc1cnc(NCCc2ccc(O)cc2)nc1NCCc1ccc(O)cc1` [Compound R926397, N2,N4-Bis[2-(4-hydroxyphenyl)ethyl]-5-methyl-2,4-pyrimidinediamine], the IC50 in experiment [1] (setting [3]) and in experiment [2] (setting [4]) was more than 10 µM throughout.
For `Fc1cnc(Nc2ccccc2-c2ccccc2)nc1Nc1ccccc1-c1ccccc1` [Compound R926398, N2,N4-Bis(2-phenylphenyl)-5-fluoro-2,4-pyrimidinediamine], the IC50 in experiment [1] (setting [3]) and in experiment [2] (setting [4]) was more than 10 µM throughout.
As for `Fc1cnc(Nc2cccc(-c3ccccc3)c2)nc1Nc1cccc(-c2ccccc2)c1` [Compound R926403, N2,N4-Bis[(3-phenyl)phenyl]-5-fluoro-2,4-pyrimidinediamine], the IC50 in experiment [1] (setting [3]) and in experiment [2] (setting [4]) was more than 10 µM in each case.
Consider `Cc1cnc(Nc2ccccc2-c2ccccc2)nc1Nc1ccccc1-c1ccccc1` [Compound R926404, N2,N4-Bis(2-phenylphenyl)-5-methyl-2,4-pyrimidinediamine], for which the IC50 in experiment [1] (setting [3]) and in experiment [2] (setting [4]) was more than 10 µM throughout.
On to `Oc1ccc(Nc2ncc(F)c(Nc3ccc(O)cc3)n2)cc1` [Compound R926405, N2,N4-Bis(4-hydroxyphenyl)-5-fluoro-2,4-pyrimidinediamine], for which the IC50 was 3.4 µM in experiment [1] (setting [3]) and more than 10 µM in experiment [2] (setting [4]).
The corresponding values for `Oc1cccc(Nc2cc(Cl)nc(Nc3cccc(O)c3)n2)c1` [Compound R926408, N2,N4-Bis(3-hydroxyphenyl)-6-chloro-2,4-pyrimidinediamine] are 9.6 µM and more than 10 µM.
Turning to `Oc1cccc(Nc2cc(Nc3cccc(O)c3)nc(Nc3cccc(O)c3)n2)c1` [Compound R926409, N2,N4,N6-Tris(3-hydroxyphenyl)-2,4,6-pyrimidinetriamine], the IC50 in experiment [1] (setting [3]) was 3.15 µM; in experiment [2] (setting [4]), more than 10 µM.
With `CC(C)NC(=O)Oc1cccc(Nc2ncc(F)c(Nc3cccc(OC(=O)NC(C)C)c3)n2)c1` [Compound R926412, N2,N4-Bis(3-isopropylaminocarbonyloxyphenyl)-5-fluoro-2,4-pyrimidinediamine], the IC50 in experiment [1] (Homo sapiens, Mast cell, read-out: CHMC anti-IgE Tryptase) was 0.62 µM; in experiment [2] (Homo sapiens, Mast cell) it was more than 10 µM.
Regarding `Clc1nc(Nc2ccc3c(c2)OCCO3)nc(Nc2ccc3c(c2)OCCO3)c1Cl` [Compound R926467, N2,N4-Bis(3,4-ethylenedioxyphenyl)-5,6-dichloro-2,4-pyrimidinediamine], the IC50 in experiment [1] (setting [3]) came to 1.18 µM; in experiment [2] (setting [4]), 8.8 µM.
In the same order, the values of `CCOC(=O)c1cc2cc(Nc3ncc(F)c(Nc4ccc(C(C)(C)C)cc4)n3)ccc2[nH]1` [Compound R926474, N4-(4-tert-Butylphenyl)-N2-(2-ethoxycarbonylindol-5-yl)-5-fluoro-2,4-pyrimidinediamine] are 2.5 µM and more than 10 µM.
The corresponding values for `CCOC(=O)c1cc2cc(Nc3ncc(F)c(Nc4ccc5c(c4)OCCO5)n3)ccc2[nH]1` [Compound R926476, N2-(2-Ethoxycarbonylindol-5-yl)-N4-(3,4-ethylenedioxyphenyl)-5-fluoro-2,4-pyrimidinediamine] are 0.6 µM and 7.7 µM.
The corresponding values for `COC(=O)c1cc2cc(Nc3ncc(F)c(Nc4ccc(C(C)(C)C)cc4)n3)ccc2o1` [Compound R926477, N4-(4-tert-Butylphenyl)-5-fluoro-N2-(2-methoxycarbonylbenzofuran-5-yl)-2,4-pyrimidinediamine] are 0.27 µM and more than 10 µM.
Regarding `CC(C)(C)c1ccc(Nc2nc(Nc3ccc4oc(C(=O)O)cc4c3)ncc2F)cc1` [Compound R926481, N4-(4-tert-Butylphenyl)-N2-(2-carboxybenzofuran-5-yl)-5-fluoro-2,4-pyrimidinediamine], the IC50 in experiment [1] (setting [3]) was 1.45 µM; in experiment [2] (setting [4]) it was more than 10 µM.
In the same order, the values of `COC(=O)c1cc2cc(Nc3nc(Nc4ccc5c(c4)OCCO5)ncc3F)ccc2o1` [Compound R926485, N2-(3,4-Ethylenedioxyphenyl)-N4-(2-methoxycarbonylbenzofuran-5-yl)-5-fluoro-2,4-pyrimidinediamine] are 4.01 µM and more than 10 µM.
Consider `COC(=O)c1cc2cc(Nc3ncc(F)c(Nc4cccc(OC(C)C)c4)n3)ccc2o1` [Compound R926487, 5-Fluoro-N4-(3-isopropoxyphenyl)-N2-(2-methoxycarbonylbenzofuran-5-yl)-2,4-pyrimidinediamine], for which the IC50 in experiment [1] (Homo sapiens, Mast cell, Low Density CHMC, anti-IgE activation, LTC4 readout, read-out: CHMC anti-IgE LTC4) was 1.25 µM; in experiment [1] (setting [3]), 0.554 µM; in experiment [2] (setting [4]), 8.87 µM.
Regarding `CNC(=O)c1cc2cc(Nc3nc(Nc4ccc5c(c4)OCCO5)ncc3F)ccc2o1` [Compound R926491, N2-(3,4-Ethylenedioxyphenyl)-5-fluoro-N4-[2-(N-methylamino)carbonylbenzofuran-5-yl]-2,4-pyrimidinediamine], the IC50 in experiment [1] (setting [3]) was 1.16 µM; in experiment [2] (setting [4]), more than 10 µM.
In the same order, the values of `c1cc2c(cc1Nc1cc(Nc3ccc4c(c3)OCCO4)nc(Nc3ccc4c(c3)OCCO4)n1)OCCO2` [Compound R926516, N2,N4,N6-Tris(3,4-ethylenedioxyphenyl)-2,4,6-pyrimidinetriamine] are 1 µM and more than 10 µM.
For the molecule `Fc1cnc(Nc2ccc3[nH]ccc3c2)nc1Nc1ccc2[nH]ccc2c1` [Compound R926582, N2,N4-Bis(indol-5-yl)-5-fluoro-2,4-pyrimidinediamine], the IC50 in experiment [1] (setting [3]) is 1.3 µM; in experiment [2] (setting [4]), more than 10 µM.
With `Oc1cccc(Nc2nc(Cl)c(Cl)c(Nc3cccc(O)c3)n2)c1` [Compound R926591, N2,N4-Bis(3-hydroxyphenyl)-5,6-dichloro-2,4-pyrimidinediamine], the IC50 in experiment [1] (setting [3]) is 2.62 µM; in experiment [2] (setting [4]), more than 10 µM.
As for `COC(=O)c1cc2cc(Nc3ncc(F)c(Nc4ccc5[nH]c(C(=O)OC)cc5c4)n3)ccc2[nH]1` [Compound R926593], the IC50 in experiment [1] (Low Density CHMC, anti-IgE activation, LTC4 readout, read-out: CHMC anti-IgE LTC4) is 0.495 µM; in experiment [1] (Low Density CHMC, anti-IgE activation, tryptase readout, read-out: CHMC anti-IgE Tryptase), 0.68 µM; in experiment [2] (Low Density CHMC, ionomycin activation, tryptase readout) it was 8.3 µM.
In the case of `Fc1cnc(Nc2ccc3cc[nH]c3c2)nc1Nc1ccc2cc[nH]c2c1` [Compound R926594, N2,N4-Bis(indol-6-yl)-5-fluoro-2,4-pyrimidinediamine], the IC50 in experiment [1] (setting [3]) and in experiment [2] (setting [4]) was more than 10 µM each time.
On to `COC(=O)c1cc2cc(Nc3ncc(F)c(Nc4ccc5oc(C(=O)OC)cc5c4)n3)ccc2o1` [Compound R926604, N2,N4-Bis(2-methoxycarbonylbenzofuran-5-yl)-5-fluoro-2,4-pyrimidinediamine], for which the results for the IC50 in experiment [1] (setting [3]) and in experiment [2] (setting [4]) were 2.85 µM and more than 10 µM, respectively.
